Here are results for 15 compounds from ChEMBL document CHEMBL1667805, “Synthesis of new C5-(1-substituted-1,2,3-triazol-4 or 5-yl)-2'-deoxyuridines and their antiviral evaluation” (Eur J Med Chem, 2011).

Series [1] is described as follows: in vitro. To be noted: human, HEL cells.
The subject of series [2] is Human alphaherpesvirus 1. Put plainly: microbe, parasite or virus in culture. To be noted: Human alphaherpesvirus 1, KOS, HEL.
Series [3] deals with Human alphaherpesvirus 2. The series is described as follows: microbe, parasite or virus in culture. To be noted: Human alphaherpesvirus 2, strain G, HEL.
Series [4] concerns Vaccinia virus. Put plainly: microbe, parasite or virus in culture. To be noted: Orthopoxvirus vaccinia, HEL.
The subject of series [5] is L1210. The series is described as follows: cells. To be noted: Mus musculus, L1210, 48 h.
Series [6] has as its system CCRF-CEM. The series is described as follows: cells. To be noted: Homo sapiens, 72 h.
For series [7], the system named is HeLa. Put plainly: cells. To be noted: Homo sapiens, 96 h.
Series [8] concerns Human alphaherpesvirus 1. Put plainly: microbe, parasite or virus in culture. To be noted: Human alphaherpesvirus 1, KOS, HEL. This is another data set of the same source.
For series [9], the system named is Mammalian orthoreovirus 1. Format: functional, organism-based. To be noted: Vero.
For series [10], the system named is Sindbis virus. Format: functional, organism-based. To be noted: Vero.
Series [11] relates to Punta Toro virus. Format: functional, organism-based. To be noted: Vero.
Series [12] concerns Coxsackievirus B4. Format: functional, organism-based. To be noted: HeLa.
In series [13] the test system is Vesicular stomatitis virus. Format: functional, organism-based. To be noted: HeLa.
For series [14], the system named is Human immunodeficiency virus 1. The series is described as follows: Antiviral activity against HIV1 3B infected in human […] cells assessed as virus-induced CEM giant cell formation after 4 days. Format: functional, organism-based.
The test system of series [15] is Human immunodeficiency virus 2. The series is described as follows: Antiviral activity against HIV2 ROD infected in human […] cells assessed as virus-induced CEM giant cell formation after 4 days. To be noted: ISOLATE ROD. Format: functional, organism-based.
Series [16] deals with Vesicular stomatitis virus. Format: functional, organism-based. To be noted: MDCK.
The subject of series [17] is Influenza A virus. Format: functional, organism-based. To be noted: H1N1, MDCK.
Series [18] relates to Influenza A virus. Format: functional, organism-based. To be noted: H3N2, MDCK.
The subject of series [19] is Influenza B virus. Format: functional, organism-based. To be noted: MDCK.
Series [20] has as its system Human respirovirus 3. Format: functional, organism-based. To be noted: Vero.
The test system of series [21] is Human alphaherpesvirus 3. The series is described as follows: microbe, parasite or virus in culture. To be noted: Human alphaherpesvirus 3, strain Oka vaccine, HEL.
Series [22] deals with Human alphaherpesvirus 3. Put plainly: microbe, parasite or virus in culture. To be noted: Human alphaherpesvirus 3, 07-1, HEL.
The test system of series [23] is Human betaherpesvirus 5. Put plainly: microbe, parasite or virus in culture. To be noted: Human betaherpesvirus 5, AD169, HEL.
In series [24] the test system is Human betaherpesvirus 5. Put plainly: microbe, parasite or virus in culture. To be noted: Human betaherpesvirus 5, Davis, HEL.

The structures appear in SMILES notation. Calls of active or inactive are those of the source. No cut-off for these calls is given here. A value given as a limit tells only on which side of the number the result lay.

In turn, `Nc1nc2c(ncn2COC(CO)CO)c(=O)[nH]1` [GANCICLOVIR] returned a 50% cytotoxic concentration (CC50) at 72 h in [1] greater than 250 µM. The MCC at 72 h in series [1] is greater than 250 µM. Besides, the EC50 in series [2] was 0.1 µM; in [3], 0.04 µM; in series [4], greater than 100 µM.
`CC(C)c1ccc(-n2nncc2-c2cn([C@H]3C[C@H](O)[C@@H](CO)O3)c(=O)[nH]c2=O)cc1`: the half-maximal inhibitory concentration (IC50) in series [5], in [6] and in [7] was greater than 200 µM each time. The compound also yielded an MCC at 72 h in series [1] greater than 100 µM. The EC50 in series [8], in [2], in series [3] and in series [4] was greater than 100 µM throughout.
As for `O=c1[nH]c(=O)n([C@H]2C[C@H](O)[C@@H](CO)O2)cc1-c1cn(-c2cc(F)cc(F)c2)nn1`, the inhibition entry in [9], in series [10], in [11], in [12], in series [13] and in series [14] was “inactive” each time. Moreover, the inhibition entry in series [15], in series [16], in series [17], in series [18], in series [19] and in [20] was “inactive” throughout. In addition, half-maximal cytotoxicity in [1] (CC50 at 72 h) was put at 36 µM. Moreover, the MCC at 72 h in [1] was determined as 220 µM. Moreover, the 50% effective concentration (EC50) in series [8] was greater than 220 µM; in series [2] it was greater than 220 µM; in [3] it was greater than 220 µM; in [21] it was greater than 50 µM; in [22], greater than 50 µM; in series [23], greater than 50 µM. Also, the half-maximal effective concentration (EC50) was greater than 50 µM in series [24] and greater than 220 µM in [4].
Compound `Nc1ccn(C[C@@H](CO)OCP(=O)(O)O)c(=O)n1` [CIDOFOVIR] had a CC50 at 72 h in series [1] greater than 250 µM. Also, the MCC at 72 h in series [1] is greater than 250 µM. The EC50 is 0.8 µM in series [8], 0.8 µM in series [2], 1.4 µM in series [3] and 0.4 µM in [24].
As to `O=c1[nH]c(=O)n([C@H]2C[C@H](O)[C@@H](CO)O2)cc1-c1cnnn1-c1c(F)cccc1F`, the IC50 in series [5] came out at 10 µM; in series [6] it was 12 µM; in series [7], 5 µM. This compound also gave an MCC at 72 h in series [1] greater than 100 µM. The EC50 in series [8], in [2], in series [3] and in series [4] was greater than 100 µM in each case.
Take `O=c1[nH]c(=O)n([C@H]2C[C@H](O)[C@@H](CO)O2)cc1-c1cn(-c2ccc(Oc3ccccc3)cc2)nn1`: the inhibition entry in [9], in series [10], in series [11], in series [12], in series [13] and in series [14] was “inactive” in each case. For the same compound, the inhibition result in series [15], in [16], in [17], in series [18], in series [19] and in series [20] was “inactive” each time. The 50% inhibitory concentration (IC50) in series [5] was 0.5 µM; in series [6], 0.8 µM; in [7], 0.28 µM. The CC50 at 72 h in [1] worked out at 0.45 µM. Further, the MCC at 72 h in series [1] was found to be 130 µM. For the same compound, the EC50 in [8] is 31 µM; in [2] it was 8.6 µM; in [3], no less than 43 µM; in series [21] it was 1.4 µM; in [22], 5.7 µM; in series [23], 19.4 µM. For the same compound, the concentration giving a half-maximal response (EC50) in series [24] worked out at 16.4 µM; in [4], 4.3 µM.
As to `O=c1[nH]c(=O)n([C@H]2C[C@H](O)[C@@H](CO)O2)cc1-c1cn(-c2ccc([N+](=O)[O-])cc2)nn1`, the inhibition result in series [9], in series [10], in [11], in [12], in [13] and in series [14] was “inactive” in each case. Besides, the inhibition result in series [15], in series [16], in series [17], in series [18], in series [19] and in series [20] was “inactive” each time. The IC50 in series [5], in [6] and in series [7] was greater than 100 µM throughout. In series [1], this compound showed a cytotoxic concentration (CC50) at 72 h of 136 µM. The MCC at 72 h in series [1] is 240 µM. The half-maximal effective concentration (EC50) in [8], in series [2], in [3], in series [21], in [22] and in [23] was greater than 50 µM throughout. Further, the half-maximal effective concentration (EC50) in series [24] and in series [4] was greater than 50 µM in each case.
For `O=c1[nH]c(=O)n([C@H]2C[C@H](O)[C@@H](CO)O2)cc1-c1cn(-c2ccccc2)nn1`, the inhibition entry in series [9], in series [10], in series [11], in [12], in [13] and in series [14] was “inactive” each time. The inhibition result in series [15], in series [16], in series [17], in series [18], in series [19] and in [20] was “inactive” throughout. Besides, the 50% inhibitory concentration (IC50) stood at 204 µM in [5], 75 µM in series [6] and 56 µM in series [7]. Further, in series [1], it took 270 µM to reach half-maximal cytotoxicity (CC50 at 72 h). This compound registered an MCC at 72 h in series [1] of 270 µM. Further, the EC50 is greater than 50 µM in series [8]; greater than 50 µM in series [2]; greater than 50 µM in [3]; greater than 270 µM in series [21]; greater than 270 µM in series [22]; greater than 270 µM in series [23]. Besides, the EC50 was greater than 270 µM in series [24] and greater than 50 µM in series [4].
As for `CSc1ccc(-n2cc(-c3cn([C@H]4C[C@H](O)[C@@H](CO)O4)c(=O)[nH]c3=O)nn2)cc1`, the inhibition result in [9], in [10], in series [11], in [12], in series [13] and in [14] was “inactive” each time. For the same compound, the inhibition entry in series [15], in [16], in [17], in series [18], in [19] and in [20] was “inactive” in each case. Besides, the half-inhibitory concentration (IC50) came to 62 µM in series [5], 50 µM in series [6] and 23 µM in [7]. The compound further displayed a CC50 at 72 h in series [1] of 27 µM. In addition, the MCC at 72 h in series [1] was greater than 230 µM. Besides, the EC50 in series [8] is greater than 50 µM; in series [2], greater than 50 µM; in series [3], greater than 50 µM; in series [21] it was 27 µM; in [22] it was greater than 50 µM; in [23] it was greater than 50 µM. For the same compound, the EC50 in series [24] and in series [4] was greater than 50 µM in each case.
In series [1], `O=c1[nH]c(=O)n([C@H]2C[C@H](O)[C@@H](CO)O2)cc1/C=C/Br` [BRIVUDINE] showed a CC50 at 72 h greater than 250 µM. In series [1], this compound came in with an MCC at 72 h greater than 250 µM. The EC50 in series [2] came out at 6 µM; in series [3], 180 µM; in [22] it was 54.4 µM.
For the compound `NC(=O)c1ncn([C@@H]2O[C@H](CO)[C@@H](O)[C@H]2O)n1` [RIBAVIRIN], in [1], the half-maximal cytotoxic concentration (CC50) at 72 h was greater than 250 µM. In series [1], the MCC at 72 h was greater than 250 µM. Moreover, the EC50 in series [8] is greater than 250 µM; in series [2], greater than 250 µM; in series [3], greater than 250 µM; in series [23], greater than 100 µM; in series [24], greater than 100 µM; in series [4], greater than 250 µM.
In the case of `O=c1[nH]cc(F)c(=O)[nH]1` [FLUOROURACIL], the values for the IC50 in series [5], in series [6] and in [7] were 0.56 µM, 14 µM and 0.57 µM, respectively.
For `O=c1[nH]c(=O)n([C@H]2C[C@H](O)[C@@H](CO)O2)cc1-c1cnnn1-c1ccc(Oc2ccccc2)cc1`, the IC50 in series [5] is 134 µM; in series [6] it was 107 µM; in series [7], 42 µM. Further, the MCC at 72 h in series [1] is greater than 100 µM. Moreover, the EC50 in series [8], in series [2], in [3] and in series [4] was greater than 100 µM each time.
Turning to `Nc1nc2c(ncn2COCCO)c(=O)[nH]1` [ACYCLOVIR], the 50% cytotoxic concentration (CC50) at 72 h in [1] was greater than 130 µM. Also, in series [1], the MCC at 72 h is greater than 50 µM. The EC50 in series [2] was 10 µM; in series [22] it was 16.5 µM; in series [4] it was greater than 250 µM.
Consider `O=c1[nH]c(=O)n([C@H]2C[C@H](O)[C@@H](CO)O2)cc1-c1cnnn1-c1ccc(Br)cc1`, for which the IC50 is 61 µM in series [5], 47 µM in series [6] and 8 µM in series [7]. Also, the MCC at 72 h in series [1] is greater than 100 µM. Moreover, the EC50 in series [8], in [2], in series [3] and in [4] was greater than 100 µM throughout.
